Data as given in PubChem BioAssay (NCI).
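Dose response: 5 concentrations. Exposure: 48 h. Format: 96-well plates. Endpoint: linear interpolation; highest concentration if not reached. Abbreviation: GI50, concentration required for 50% inhibition of growth. Definition used: TGI = concentration required for complete inhibition of growth.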

What was measured:
Assay in all cases: growth of human tumour cells (NCI), 48 h
[1] = tested on: ACHN renal
[2] = tested on: EKVX NSCLC
[3] = tested on: HCT-116 colon
[4] = tested on: SN12C renal
[5] = tested on: UACC-62 melanoma
[6] = tested on: 786-0 renal
[7] = tested on: RXF 393 renal
[8] = tested on: PC-3 prostate
[9] = tested on: SF-295 CNS
[10] = tested on: A498 renal
[11] = tested on: KM12 colon
[12] = tested on: UO-31 renal
[13] = tested on: LOX IMVI melanoma
[14] = tested on: CCRF-CEM leukemia
[15] = tested on: SK-OV-3 ovarian
[16] = tested on: OVCAR-8 ovarian
[17] = tested on: MDA-MB-435
[18] = tested on: SF-268 CNS
[19] = tested on: U251 CNS
[20] = tested on: K-562 leukemia
[21] = tested on: MDA-MB-231 breast
[22] = tested on: IGROV1 ovarian
[23] = tested on: HOP-92 NSCLC
[24] = tested on: SNB-75 CNS
[25] = tested on: OVCAR-4 ovarian
[26] = tested on: COLO 205 colon
[27] = tested on: HCC-2998 colon
[28] = tested on: MOLT-4 leukemia
[29] = tested on: A549 NSCLC
[30] = tested on: SK-MEL-5 melanoma
[31] = tested on: SNB-19 CNS
[32] = tested on: HL-60(TB) leukemia
[33] = tested on: OVCAR-5 ovarian
[34] = tested on: NCI/ADR-RES ovarian
[35] = tested on: NCI-H460 lung
[36] = tested on: BT-549 breast
[37] = tested on: HOP-62 NSCLC
[38] = tested on: SF-539 CNS
[39] = tested on: HCT-15 colon
[40] = tested on: MALME-3M melanoma
[41] = tested on: NCI-H522 lung
[42] = tested on: UACC-257 melanoma
[43] = tested on: DU-145 prostate
[44] = tested on: M14 melanoma
[45] = tested on: NCI-H23 lung
[46] = tested on: SK-MEL-28 melanoma
[47] = tested on: SW-620 colon
[48] = tested on: SK-MEL-2 melanoma
[49] = tested on: RPMI-8226 leukemia
[50] = tested on: MCF7 breast
[51] = tested on: HS 578T breast
[52] = tested on: CAKI-1 renal
[53] = tested on: NCI-H226 lung
[54] = tested on: HT29 colon
[55] = tested on: T-47D breast
[56] = tested on: TK-10 renal
[57] = tested on: SR leukemia
[58] = tested on: OVCAR-3 ovarian

CC[C@]12C=CCN3CC[C@]4(C(=C(C(=O)OC)C1)Nc1cc5c(cc14)[C@@H]1[C@H](O5)[C@@H](O)[C@@]4(CC)CC(C(=O)OC)=C5Nc6cc(OC)ccc6[C@@]56CCN1[C@@H]46)[C@@H]32
GI50 [1]: 174 nM | TGI [1]: 690 nM | GI50 [2]: 253 nM | TGI [2]: 12300 nM | GI50 [3]: 102 nM | TGI [3]: 352 nM | GI50 [4]: 236 nM | TGI [4]: 5960 nM | GI50 [5]: 103 nM | TGI [5]: 1630 nM | GI50 [6]: 92.9 nM | TGI [6]: 1070 nM | GI50 [7]: 150 nM | TGI [7]: 613 nM | GI50 [8]: 225 nM | TGI [8]: 5140 nM | GI50 [9]: 250 nM | TGI [9]: 13800 nM | GI50 [10]: 98 nM | TGI [10]: 299 nM | GI50 [11]: 231 nM | TGI [11]: 3230 nM | GI50 [12]: 131 nM | TGI [12]: 2180 nM | GI50 [13]: 29.6 nM | TGI [13]: 105 nM | GI50 [14]: 161 nM | TGI [14]: > 50000 nM | GI50 [15]: 167 nM | TGI [15]: 706 nM | GI50 [16]: 199 nM | TGI [16]: 2470 nM | GI50 [17]: 173 nM | TGI [17]: 1460 nM | GI50 [18]: 343 nM | TGI [18]: 11700 nM | GI50 [19]: 174 nM | TGI [19]: 877 nM | GI50 [20]: 117 nM | TGI [20]: > 50000 nM | GI50 [21]: 163 nM | TGI [21]: > 11400 nM | GI50 [22]: 152 nM | TGI [22]: 2010 nM | GI50 [23]: 70.9 nM | TGI [23]: 4050 nM | GI50 [24]: 345 nM | TGI [24]: 4440 nM | GI50 [25]: 181 nM | TGI [25]: > 50000 nM | GI50 [26]: 108 nM | TGI [26]: 437 nM | GI50 [27]: 130 nM | TGI [27]: 557 nM | GI50 [28]: 190 nM | TGI [28]: > 50000 nM | GI50 [29]: 368 nM | TGI [29]: 6940 nM | GI50 [30]: 227 nM | TGI [30]: 2980 nM | GI50 [31]: 300 nM | TGI [31]: 14900 nM | GI50 [32]: 58.3 nM | GI50 [33]: 294 nM | TGI [33]: 5340 nM | GI50 [34]: 388 nM | TGI [34]: > 50000 nM | GI50 [35]: 407 nM | TGI [35]: 5550 nM | GI50 [36]: 230 nM | TGI [36]: 2220 nM | GI50 [37]: 189 nM | TGI [37]: 3120 nM | GI50 [38]: 147 nM | TGI [38]: 1330 nM | GI50 [39]: 137 nM | TGI [39]: 511 nM | GI50 [40]: 187 nM | TGI [40]: 3800 nM | GI50 [41]: 109 nM | TGI [41]: 349 nM | GI50 [42]: 183 nM | TGI [42]: 3720 nM | GI50 [43]: 591 nM | TGI [43]: > 20400 nM | GI50 [44]: 163 nM | TGI [44]: 3140 nM | GI50 [45]: 171 nM | TGI [45]: 805 nM | GI50 [46]: 457 nM | TGI [46]: 3260 nM | GI50 [47]: 177 nM | TGI [47]: 1260 nM | GI50 [48]: 229 nM | TGI [48]: 2930 nM | GI50 [49]: 133 nM | TGI [49]: 576 nM | GI50 [50]: 121 nM | TGI [50]: > 16500 nM | GI50 [51]: 211 nM | TGI [51]: > 50000 nM | GI50 [52]: 87.7 nM | TGI [52]: 2130 nM | GI50 [53]: 160 nM | TGI [53]: 4300 nM | GI50 [54]: 161 nM | TGI [54]: 1810 nM | GI50 [55]: 155 nM | TGI [55]: 1330 nM | GI50 [56]: 128 nM | TGI [56]: 1050 nM | GI50 [57]: 137 nM | TGI [57]: 2820 nM

CC(=O)OC[C@]12CC[C@@H](C(=O)/C=C/c3cccnc3)[C@@H]1[C@H]1CC[C@@H]3[C@@]4(C)CC[C@H](OC(C)=O)C(C)(C)[C@@H]4CC[C@@]3(C)[C@]1(C)CC2
GI50 [1]: 1610 nM | TGI [1]: 3020 nM | GI50 [2]: 2180 nM | TGI [2]: 6990 nM | GI50 [4]: 1590 nM | TGI [4]: 4350 nM | GI50 [5]: 1670 nM | TGI [5]: 4080 nM | GI50 [6]: 2420 nM | TGI [6]: 6710 nM | GI50 [7]: 1620 nM | TGI [7]: 3050 nM | GI50 [8]: 820 nM | TGI [8]: 4140 nM | GI50 [9]: 1470 nM | TGI [9]: 3190 nM | GI50 [10]: 1330 nM | TGI [10]: 2840 nM | GI50 [11]: 1690 nM | TGI [11]: 4130 nM | GI50 [12]: 1370 nM | TGI [12]: 2670 nM | GI50 [15]: 3320 nM | TGI [15]: 19000 nM | GI50 [58]: 1710 nM | TGI [58]: 3290 nM | GI50 [17]: 1410 nM | TGI [17]: 3180 nM | GI50 [19]: 1600 nM | TGI [19]: 3350 nM | GI50 [20]: 903 nM | TGI [20]: > 100000 nM | GI50 [21]: 1500 nM | TGI [21]: 3610 nM | GI50 [22]: 1870 nM | TGI [22]: 4400 nM | GI50 [23]: 1080 nM | TGI [23]: 2470 nM | GI50 [24]: 1500 nM | TGI [24]: 5000 nM | GI50 [25]: 3010 nM | TGI [25]: > 100000 nM | GI50 [26]: 1480 nM | TGI [26]: 3370 nM | GI50 [27]: 1650 nM | TGI [27]: 3230 nM | GI50 [28]: 587 nM | TGI [28]: 4000 nM | GI50 [29]: 1820 nM | TGI [29]: 4690 nM | GI50 [30]: 1550 nM | TGI [30]: 2970 nM | GI50 [31]: 1890 nM | TGI [31]: 4640 nM | GI50 [32]: 450 nM | TGI [32]: 3290 nM | GI50 [33]: 1820 nM | TGI [33]: 4070 nM | GI50 [34]: 1990 nM | TGI [34]: 4910 nM | GI50 [35]: 1310 nM | TGI [35]: 3010 nM | GI50 [36]: 1460 nM | TGI [36]: 2870 nM | GI50 [37]: 2210 nM | TGI [37]: 6370 nM | GI50 [38]: 1590 nM | TGI [38]: 3070 nM | GI50 [39]: 1500 nM | TGI [39]: 3340 nM | GI50 [40]: 1380 nM | TGI [40]: 2880 nM | GI50 [42]: 1900 nM | TGI [42]: 4680 nM | GI50 [45]: 1860 nM | TGI [45]: 4120 nM | GI50 [46]: 1440 nM | TGI [46]: 2890 nM | GI50 [47]: 1470 nM | TGI [47]: 3420 nM | GI50 [48]: 1800 nM | TGI [48]: 3780 nM | GI50 [49]: 839 nM | TGI [49]: 3640 nM | GI50 [50]: 1100 nM | TGI [50]: 2420 nM | GI50 [51]: 2240 nM | TGI [51]: 6610 nM | GI50 [52]: 1260 nM | TGI [52]: 2700 nM | GI50 [53]: 1720 nM | TGI [53]: 3850 nM | GI50 [54]: 1870 nM | TGI [54]: 4740 nM | GI50 [55]: 1060 nM | TGI [55]: 3530 nM | GI50 [56]: 1850 nM | TGI [56]: 3630 nM | GI50 [57]: 512 nM | TGI [57]: > 100000 nM
